According to ChEMBL document CHEMBL5233210, “Pyrazolone structural motif in medicinal chemistry: Retrospect and prospect” (Eur J Med Chem, 2020):
In brackets after ≈: the same amount, converted by molar mass.

How the values were obtained:
[1] = Antioxidant activity assessed as DPPH radical scavenging activity; type: functional
Ehrlich [2] = assay: Cytotoxicity against mouse Ehrlich ascites cells assessed as dead cells at 25 ug/ml; type: functional; conditions: dose 25 µg/ml
Ehrlich [3] = assay: Cytotoxicity against mouse Ehrlich ascites cells assessed as dead cells at 500 ug/ml; type: functional; conditions: dose 500 µg/ml
Ehrlich [4] = assay: Cytotoxicity against mouse Ehrlich ascites cells assessed as dead cells at 100 ug/ml; type: functional; conditions: dose 100 µg/ml
MCF7 = assay: Cytotoxicity against human MCF7 cells; type: functional, cell-based
Candida albicans = assay: Antifungal activity against Candida albicans; type: functional
Escherichia coli [5] = assay: Antibacterial activity against Escherichia coli; type: functional
Pseudomonas aeruginosa = assay: Antibacterial activity against Pseudomonas aeruginosa; type: functional
Aspergillus fumigatus = assay: Antifungal activity against Aspergillus fumigatus; type: functional
Streptococcus pyogenes = assay: Antibacterial activity against Streptococcus pyogenes; type: functional
Bacillus subtilis [6] = assay: Antibacterial activity against Bacillus subtilis; type: functional
Staphylococcus aureus = assay: Antibacterial activity against Staphylococcus aureus; type: functional
Aspergillus niger = assay: Antifungal activity against Aspergillus niger; type: functional
Rattus norvegicus [7] = assay: Antiinflammatory activity against rat assessed as inhibition of carrageenan-induced paw edema relative to control; type: functional; set-up: concentration or dose not given beside the values
Escherichia coli [8] = assay: Antibacterial activity against Escherichia coli assessed as diameter of inhibition zone at 100 ppm; type: functional; conditions: read-out: DIZ
Bacillus subtilis [9] = assay: Antibacterial activity against Bacillus subtilis assessed as diameter of inhibition zone at 100 ppm; type: functional; conditions: read-out: DIZ
Rattus norvegicus [10] = assay: Antiinflammatory activity against rat assessed as inhibition of carrageenan-induced paw edema; type: functional
Ovis aries = species: Ovis aries; assay: Selectivity index, ratio of IC50 for ovine COX-1 to IC50 for ovine COX-2
[11] = biological target: T1, Prostaglandin G/H synthase 1 (Ovis aries, UniProt P05979); assay: Inhibition of ovine COX-1
T1 sequence (P05979 whole entry): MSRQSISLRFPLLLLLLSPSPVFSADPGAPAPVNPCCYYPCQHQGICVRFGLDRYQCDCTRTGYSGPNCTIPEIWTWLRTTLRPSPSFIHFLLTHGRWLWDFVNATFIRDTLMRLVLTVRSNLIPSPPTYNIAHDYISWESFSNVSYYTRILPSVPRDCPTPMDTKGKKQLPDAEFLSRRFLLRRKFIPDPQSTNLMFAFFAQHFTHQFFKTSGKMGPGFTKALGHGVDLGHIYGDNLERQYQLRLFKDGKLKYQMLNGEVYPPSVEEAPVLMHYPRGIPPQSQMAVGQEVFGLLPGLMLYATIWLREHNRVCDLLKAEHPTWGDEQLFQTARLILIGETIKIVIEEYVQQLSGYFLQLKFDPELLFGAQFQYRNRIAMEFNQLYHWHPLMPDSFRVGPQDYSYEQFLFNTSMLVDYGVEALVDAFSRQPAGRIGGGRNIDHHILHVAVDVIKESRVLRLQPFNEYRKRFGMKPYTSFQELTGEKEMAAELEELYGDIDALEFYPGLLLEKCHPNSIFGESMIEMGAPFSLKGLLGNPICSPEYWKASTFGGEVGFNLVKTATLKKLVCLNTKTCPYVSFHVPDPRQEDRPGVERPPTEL

## C/C(=N\c1c(C)n(C)n(-c2ccccc2)c1=O)c1cc(O)ccc1O
[1]
  IC50: 15.2 µM

## CCOC(=O)c1c(N/N=C2/C(=O)NN=C2C)sc2c1CCCC2
Ehrlich [2]
  Activity: 43%
Ehrlich [3]
  Activity: 71%
Ehrlich [4]
  Activity: 79.4%

## Cc1c(/N=C/c2ccc(O)cc2O)c(=O)n(-c2ccccc2)n1C
[1]
  IC50: 20.1 µM

## Cc1c(-n2cc(C#N)c(=O)n(-c3ccc(Br)cc3)c2=S)c(=O)n(-c2ccccc2)n1C
MCF7
  IC50: 43.4 µM

## CC(C)CCC[C@@H](C)[C@H]1CC[C@H]2[C@@H]3C/C(=C4\C(=O)NN=C4N)C4CCCC[C@]4(C)[C@H]3CC[C@]12C (some centres undefined)
Candida albicans
  MIC: 25 µg/mL (≈ 53.4 µM)
Escherichia coli [5]
  MIC: 50 µg/mL (≈ 107 µM)
Pseudomonas aeruginosa
  MIC: 50 µg/mL (≈ 107 µM)
Aspergillus fumigatus
  MIC: 25 µg/mL (≈ 53.4 µM)
Streptococcus pyogenes
  MIC: 50 µg/mL (≈ 107 µM)

## CCCC1=NN(c2c(F)c(F)cc(F)c2F)C(=O)/C1=C\c1cn(-c2ccccc2)nc1-c1ccc(Cl)cc1
Candida albicans
  MIC: 1000 µg/mL (≈ 1860 µM)
Bacillus subtilis [6]
  MIC: 100 µg/mL (≈ 186 µM)
Escherichia coli [5]
  MIC: 62.5 µg/mL (≈ 116 µM)
Pseudomonas aeruginosa
  MIC: 200 µg/mL (≈ 371 µM)
Streptococcus pyogenes
  MIC: 100 µg/mL (≈ 186 µM)
Staphylococcus aureus
  MIC: 100 µg/mL (≈ 186 µM)
Aspergillus niger
  MIC: > 1000 µg/mL

## CC1=NNC(=O)/C1=N/Nc1sc2c(c1C(N)=O)CCCC2
Ehrlich [2]
  Activity: 38.1%
Ehrlich [3]
  Activity: 66.6%
Ehrlich [4]
  Activity: 96.5%

## O=C1/C(=C\c2coc3ccc(Cl)cc3c2=O)C(C(F)(F)F)=NN1c1c(F)c(F)cc(F)c1F
Candida albicans
  MIC: 1000 µg/mL (≈ 2040 µM)
Bacillus subtilis [6]
  MIC: 250 µg/mL (≈ 509 µM)
Escherichia coli [5]
  MIC: 125 µg/mL (≈ 255 µM)
Pseudomonas aeruginosa
  MIC: 62.5 µg/mL (≈ 127 µM)
Streptococcus pyogenes
  MIC: 200 µg/mL (≈ 408 µM)
Staphylococcus aureus
  MIC: 250 µg/mL (≈ 509 µM)
Aspergillus niger
  MIC: 500 µg/mL (≈ 1020 µM)

## NC1=NNC(=O)C1(CCS(=O)(=O)c1ccccc1)CCS(=O)(=O)c1ccccc1
Bacillus subtilis [6]
  MIC: 100 µg/mL (≈ 230 µM)
Staphylococcus aureus
  MIC: 100 µg/mL (≈ 230 µM)
Aspergillus niger
  MIC: 100 µg/mL (≈ 230 µM)

## Cc1c(-n2cc(C#N)c(=O)n(-c3ccc(I)cc3)c2=S)c(=O)n(-c2ccccc2)n1C
MCF7
  IC50: 30.7 µM

## COc1ccc(-c2cc(C3C(=O)N(c4ccccc4)N=C3C)nc(N)n2)cc1 (centres undefined)
Rattus norvegicus [7]
  Activity: 61.02%

## COc1cc(-c2cc(C3C(=O)N(c4ccc([N+](=O)[O-])cc4[N+](=O)[O-])N=C3C)nc(N)n2)ccc1O (centres undefined)
Rattus norvegicus [7]
  Activity: 62.51%

## C/C(=N\c1c(C)n(C)n(-c2ccccc2)c1=O)c1ccc(O)cc1O
[1]
  IC50: 19.1 µM

## Cc1c(-n2cc(C#N)c(=O)n(-c3ccc(S(=O)(=O)c4ccc(-n5c(=O)c(C#N)cn(-c6c(C)n(C)n(-c7ccccc7)c6=O)c5=S)cc4)cc3)c2=S)c(=O)n(-c2ccccc2)n1C
MCF7
  IC50: 37.2 µM

## CCOC(=O)C1CCN(/C(Nc2ccccc2)=C2\C(=O)N(c3ccccc3)N=C2C)CC1
Escherichia coli [8]
  zone of inhibition at 100 µg/mL: 40 mm
Bacillus subtilis [9]
  zone of inhibition at 100 µg/mL: 36 mm

## Cc1c(-n2cc(C#N)c(=O)n(-c3ccccc3)c2=N)c(=O)n(-c2ccccc2)n1C
MCF7
  IC50: 54.2 µM

## O=C1/C(=C2/CN(c3ccccc3)N=C2c2ccccc2)C(c2ccccc2)=NN1c1ccccc1
Bacillus subtilis [6]
  MIC: 10 µg/mL (≈ 22 µM)
Escherichia coli [5]
  MIC: 4.08 µg/mL (≈ 8.98 µM)
Aspergillus niger
  MIC: 5.1 µg/mL (≈ 11.2 µM)

## O=C1/C(=C\c2coc3ccccc3c2=O)C(C(F)(F)F)=NN1c1c(F)c(F)cc(F)c1F
Candida albicans
  MIC: 250 µg/mL (≈ 548 µM)
Bacillus subtilis [6]
  MIC: 62.5 µg/mL (≈ 137 µM)
Escherichia coli [5]
  MIC: 500 µg/mL (≈ 1100 µM)
Pseudomonas aeruginosa
  MIC: 500 µg/mL (≈ 1100 µM)
Streptococcus pyogenes
  MIC: 200 µg/mL (≈ 438 µM)
Staphylococcus aureus
  MIC: 62.5 µg/mL (≈ 137 µM)
Aspergillus niger
  MIC: > 1000 µg/mL

## COc1ccc(N/N=C2\C(=O)N(CC(=O)n3[nH]c(N)cc3=O)N=C2C(F)(F)F)cc1
Candida albicans
  MIC: 9.22 µg/mL (≈ 21.7 µM)
Escherichia coli [5]
  MIC: 15.3 µg/mL (≈ 35.9 µM)
Pseudomonas aeruginosa
  MIC: 9.58 µg/mL (≈ 22.5 µM)
Staphylococcus aureus
  MIC: 8.02 µg/mL (≈ 18.9 µM)
Aspergillus niger
  MIC: 5.3 µg/mL (≈ 12.5 µM)

## Cc1[nH]n(-c2ccccc2)c(=O)c1CNc1ccc(S(N)(=O)=O)cc1
Rattus norvegicus [7]
  Activity: 92%
Rattus norvegicus [10]
  ED50: 109 mg/kg
Ovis aries
  Ratio IC50: > 100
[11]
  IC50: > 100 µM

## CC(=O)OC1CC[C@@]2(C)C(C1)/C(=C1/C(=O)NN=C1N)C[C@H]1[C@@H]3CC[C@H]([C@H](C)CCCC(C)C)[C@@]3(C)CC[C@@H]12 (some centres undefined)
Candida albicans
  MIC: 25 µg/mL (≈ 47.5 µM)
Escherichia coli [5]
  MIC: 50 µg/mL (≈ 95.1 µM)
Pseudomonas aeruginosa
  MIC: 50 µg/mL (≈ 95.1 µM)
Aspergillus fumigatus
  MIC: 50 µg/mL (≈ 95.1 µM)
Streptococcus pyogenes
  MIC: 50 µg/mL (≈ 95.1 µM)

## Cc1c(/N=C/c2ccccc2)c(=O)n(-c2ccccc2)n1C
[1]
  IC50: 31.3 µM

## CCCOC(=O)c1cc(O)c(O)c(O)c1 [PROPYL GALLATE]
[1]
  IC50: 30.3 µM

## CCOc1ccc(N/N=C2\C(=O)N(CC(=O)n3[nH]c(N)cc3=O)N=C2C(F)(F)F)cc1
Candida albicans
  MIC: 9.08 µg/mL (≈ 20.7 µM)
Escherichia coli [5]
  MIC: 26.7 µg/mL (≈ 60.8 µM)
Pseudomonas aeruginosa
  MIC: 11.9 µg/mL (≈ 27.1 µM)
Staphylococcus aureus
  MIC: 12 µg/mL (≈ 27.4 µM)
Aspergillus niger
  MIC: 6.28 µg/mL (≈ 14.3 µM)

## Cc1c(/N=C/c2cc(O)ccc2O)c(=O)n(-c2ccccc2)n1C
[1]
  IC50: 17.1 µM

## Cc1[nH]n(-c2ccccc2)c(=O)c1CNC(=S)Nc1ccccc1
Rattus norvegicus [7]
  Activity: 91%
Rattus norvegicus [10]
  ED50: 102 mg/kg
Ovis aries
  Ratio IC50: 400
